# In patent US12636378B2, “Targeted antigen delivery system and uses thereof” (SRI International, priority 2020, dated 2026):
# “Also recorded” adds a separate entry of the source. Read-outs that look alike come from different tables or passages of the source. No end group written: not given here.
# Tests used:
# NSCLC lines = test: Flow cytometry binding to NSCLC lines; format: cell-based, human
# Text: (§1) The final optimized SRI_MGS5_V1 peptide, SRI_MGS5_V2, has the following characteristics.
# [1] = tested on: normal control human lung epithelial cell line (HBEC); test: Binding to normal lung epithelial cells; format: cell-based
# Text: as §1
# [2] = tested on: breast cancer lines (MCF-7, MDA-MB-231and 4T1); test: Binding to breast cancer lines; format: cell-based
# Text: as §1
# 4T1 cells = test: Quantitative flow cytometry binding and internalization in 4T1 cells; format: cell-based, mouse
# [3] = tested on: pancreatic cancer line (Pan02); test: Flow cytometry binding and internalization in Pan02 cells; format: cell-based, mouse
# Text: as §1
# [4] = tested on: glioma cell line (GL-261); test: Flow cytometry binding and internalization in GL261 cells; format: cell-based, mouse
# Text: as §1
# [5] = tested on: panel of cancer cell lines; test: Binding in a panel of cancer cell lines; format: cell-based
# [6] = tested on: three human NSCLC cell lines; test: Quantitative flow cytometry uptake assay, NSCLC cell lines; format: cell-based
# Description: Uptake is represented as an average number of peptides per cell. Error bars are smaller than the symbol for some points.
# (§2) A quantitative flow cytometry assay was performed that measures the average number of molecules of peptide internalized per cell. […] The number of molecules internalized ranges from 1×10^5 molecules/cell for H358 cells to 8×10^5 for H1993 cells, corresponding to intracellular concentrations of 100-800 nM. The rate of uptake at 6 hours is not saturated and it appears that peptide continues to enter the cell past this time (FIG. 5 and FIG. 6). This indicates either high receptor numbers which have not yet saturated or rapid recycling of the receptor that allows for continual delivery, reaching high intracellular concentrations of the peptide.
# H358 cells = test: Quantitative flow cytometry uptake assay, H358; format: cell-based, human
# Description: H358 cell line data has been not included in FIG. 6 for clarity due to differences in the Y axis.
# as §2
# H1993 cells [7] = test: Quantitative flow cytometry uptake assay, H1993; format: cell-based, human
# Description: as §2
# H1993 NSCLC cells = test: Confocal microscopy, co-localization of peptide with autophagic vesicles; format: cell-based, human; settings: 100 nM
# Description: FIGS. 7A-7C show an example of co-localization of SRI_MGS5_V2 peptides with autophagic vesicles (A) H1993 cells treated with 100 nM of SRI_MGS5_V1 peptide (panel A) and optimized SRI_MGS_V2 (panels B and C) conjugated with Alexa Fluor 647 (Red). Autophagosomes are stained with LC3B antibody (Green). The regions corresponding to co-localization of the peptide and autophagic vesicles are shown in yellow.
# (§3) Therefore, accumulation in autophagosomes is a necessary component for success of this immunotherapy.
# LLC1 cells [8] = test: Confocal microscopy, autophagic vesicles in LLC1 cells; format: cell-based, mouse
# Text: as §3
# [9] = tested on: subcutaneous H1993 NSCLC tumor; test: NIR imaging of dye-labeled peptides in mice with subcutaneous H1993 tumor; format: in vivo; settings: for tumor accumulation / tumor targeting: Alexa Fluor 750 conjugate, tail vein injection
# Description: The peptides were conjugated to Alexa Fluor 750 dye and […] injected intravenously via the tail vein into mice bearing a subcutaneous H1993 NSCLC tumor on their right flank.
# SRI_MGS5_V2 and parental SRI_MGS5_V1 were labeled with the near-infrared dye Alexa Fluor 750 for imaging. […] For example, SRI_MGS5_V2 has 3-fold lower signal in the lung compared to SRI_MGS5_V1. […] Importantly, the corresponding nonacetylated versions of each peptide were evaluated as well.
# LLC1 tumors = settings: 15 μg I.V., Alexa Fluor 750 conjugate, 72 hours
# Description: The LLC1 tumors were grown until palpable (≈500 mm^3) at which point mice were treated I.V. with 15 μg of SRI_MGS5_V2 conjugated to Alexa Fluor 750. Images were taken daily for 72 hours, after which the animal was sacrificed, and its organs were assessed to determine localization of the targeting peptide.
# H1993 cells [10] = test: Co-culture assay, liposome treated H1993 cells with HLA-A2 positive PBMCs, cytokine ELISA; format: cell-based, human
# Description: TALL treated H1993 cells were co-cultured with HLA-A2 positive PBMCs and culture supernatants were analyzed for TNF-α secretion. Concentration of all liposomes used in this assay corresponded to ≈4.5 mg/ml of phosphatidyl choline. Free H250 peptide control is incubated at 5 μmol/L.
# TALL treated H1993 cells were co-cultured with HLA-A2 positive PBMCs and culture supernatants were analyzed for IFNγ secretion. Concentration of all liposomes used in this assay corresponded to ≈4.5 mg/ml of phosphatidyl choline. Free H250 peptide control is incubated at 5 μmol/L.
# (§4) The liposomes were loaded with the H250 antigenic peptide and SRI_MGS5_V2 or SRI_MGS5_V1 was conjugated to the external face of the liposome via maleimide chemistry. The liposomes were incubated with H1993 cells followed by co-culture with peripheral blood mononuclear cells (PBMCs) from an anonymous donor that is haplotype HLA A2+ and vaccinated against measles. […] More experiments testing different liposome variants and assessing TNF-α and INF-γ in co-culture were performed. […] The same experiments were completed using mouse LLC1 cells as the antigen presenting cells and lymph node lymphocytes (LNL) from C57B1/6 mice that had been vaccinated against HA.
# LLC1 cells [11] = test: Co-culture assay, liposome treated LLC1 cells, cytokine ELISA; format: cell-based, murine
# Description: TALL treated LLC1 cells were co-cultured with HLA-A2 positive PBMCs and culture supernatants were analyzed for TNF-α a secretion. […] Concentration of all liposomes used in this assay corresponded to ≈4.5 mg/ml of phosphatidyl choline. Free H250 peptide control is incubated at 5 μmol/L.
# TALL treated LLC1 cells were co-cultured with HLA-A2 positive PBMCs and culture supernatants were analyzed for IFN-γ secretion. […] Concentration of all liposomes used in this assay corresponded to ≈4.5 mg/ml of phosphatidyl choline. Free H250 peptide control is incubated at 5 μmol/L.
# as §4
# [12] = tested on: Multiple Different Cancer Types; test: Functional presentation of antigenic peptide in multiple cancer types; format: cell-based
# Text: Treatment groups: A—MGS5_V2 Targeted Liposome Loaded with H250 Antigen; B—Positive Control: Cells Pulsed with Free H250 Antigen; C—No MGS on Liposome Loaded with H250 Antigen; D—Blank Liposomes—no H250 Antigen.
# H1993 cells [13] = tested on: H1993 cells
# [14] = tested on: 4T1 cells implanted in mammary fat pads; settings: nIR dye-labelled peptide
# Pan02 cells = settings: fluorescent dye-labelled peptide
# [15] = tested on: GL261 cells implanted in the brain; settings: fluorescent dye-labelled peptide
# [16] = HLA A*02:01 patients; cited from earlier work
# [17] = Physicochemical properties of peptides (hydrophobicity, solubility, stability)
# [18] = tested on: normal control human lung epithelial cell line (HBEC); settings: cited from earlier work
# cancer cells = settings: cited from earlier work
substance,measurement,setting,value
"(CH3CO-LQWRRNFGVWARYRL-PEG11)2K-X (not fully specified; N-acetyl, PEG11, dimerized on lysine core, tag X; targeting sequence) [SRI_MGS5_V2]",binding to NSCLC lines compared to parental SRI_MGS5_V1,NSCLC lines,greater binding affinity; also recorded: increased binding
same,discrimination between NSCLC cancer and normal cells in the lung,[1],high discriminating power
same,binding to breast cancer lines,[2],shown to bind; also recorded: binds
same,binding and internalization in 4T1 cells,4T1 cells,concentration dependent binding and internalization
same,binding (and internalization) in Pan02 cells,[3],shown to bind; also recorded: binds
same,binding (and internalization) in Pan02 cells,[3]; listed as MGS5_V2,concentration dependent binding and internalization
same,binding (and internalization) in GL261 cells,[4],shown to bind; also recorded: binds
same,binding (and internalization) in GL261 cells,[4]; listed as MGS5_V2,concentration dependent binding and internalization
same,binding in a panel of cancer cell lines,[5],improved binding
same,uptake at low temperature,[6]; 4° C.,greatly reduced
same,rate of uptake,"[6]; at 6 hours, 100 nM dye-labeled peptide",not saturated
same,intracellular concentrations,[6]; corresponding to molecules/cell from H358 to H1993,100 to 800 nM
same,internalization,[6]; three human NSCLC cell lines,is internalized
same,number of molecules internalized,H358 cells,1×10^5 molecules/cell
same,number of molecules internalized,H1993 cells [7],8×10^5 molecules/cell
same,accumulation in autophagic vesicles compared to parental MGS5_V1,H1993 NSCLC cells,much greater extent
same,accumulation in autophagic vesicles,LLC1 cells [8],Comparable results
same,tumor accumulation / tumor targeting,[9],accumulate specifically
same,non-specific accumulation in the lung and other organs vs acetylated SRI_MGS5_V1,[9]; ex vivo imaging at 72 H,reduced non-specific accumulation
same,less signal in the kidneys compared to SRI_MGS5_V1,"[9]; ex vivo, 72 H",2.2 fold
same,"extent of tumor uptake, V1 versus V2","[9]; mouse, in vivo",roughly the same degree
same,less signal in the liver compared to SRI_MGS5_V1,"[9]; mouse, in vivo",1.6 fold
same,lower signal in the lung compared to SRI_MGS5_V1,"[9]; mouse, in vivo",3 fold
same,time to localization at the tumor site,"[9]; mouse, in vivo",≤ 24 h
same,tumor signal maintained,"[9]; mouse, in vivo",72 h
same,localization in LLC1 tumor,LLC1 tumors; listed as SRI_MGS2_V2,successfully localized
same,localization in LLC1 tumor,LLC1 tumors; listed as SRI_MGS5_V5,homes to LLC1 tumors
same,presentation of encapsulated immunogenic peptide in HLA class I molecules (IFNγ ELISA),H1993 cells [10],facilitates presentation
same,presentation of encapsulated immunogenic peptide in HLA class I molecules (TNF-α ELISA),H1993 cells [10],facilitates presentation
same,presentation of encapsulated immunogenic peptide in HLA class I molecules (IFN-γ ELISA),LLC1 cells [11],facilitates presentation
same,presentation of encapsulated immunogenic peptide in HLA class I molecules (TNF-α ELISA),LLC1 cells [11],facilitates presentation
same,functional presentation of antigenic peptide,[12],Mediates Functional Presentation
same,cell viability,"H1993 cells [13]; 72 hours, concentrations as high as 250 μM",No significant loss of viability
same,toxicity of uptake,H1993 cells [13]; H1993 cells,not toxic
same,"tumor localization, orthotopic 4T1",[14],homes to tumors
same,"tumor localization, orthotopic 4T1",[14]; listed as MGS5_V2,localized within the tumors
same,"tumor localization, orthotopic Pan02",Pan02 cells,homes to tumors
same,"tumor localization, orthotopic Pan02",Pan02 cells; listed as MGS5_V2,localized in the tumor
same,"tumor localization, orthotopic GL261",[15],homes to tumors
same,"tumor localization, orthotopic GL261",[15]; listed as MGS5_V2,targets GL261 cells
ILPGQDLQYV [H516],immunogenic response,[16],highly immunogenic
"SLSAYIIRV [H3L, SLSAYIIRV]",biophysical properties,[17],"hydrophobic, difficult to purify, and unstable"
"SLWGSLLML [C166, SLWGSLLML]",biophysical properties,[17],"hydrophobic, difficult to purify, and unstable"
"SMYRVFEVGV [H250, measles virus hemagglutinin peptide, HLA class I (A*02:01) restricted]",immunogenic response,[16],strong CD8 specific IFNγ response; also recorded: strong CD8 specific IFNy response
"SRI_MGS5_V1: parental tumor-targeting peptide, dimer comprising LQWRRDDNVHNFGVWARYRL (SEQ ID NO:2) (also: dimer) [reference compound]",off-tumor signal in vivo,[9]; 24 H,significant signal along the dorsal side
same,tumor accumulation / tumor targeting,[9],accumulate specifically
same,"extent of tumor uptake, V1 versus V2","[9]; mouse, in vivo",roughly the same degree
same,time to localization at the tumor site,"[9]; mouse, in vivo",≤ 24 h
same,tumor signal maintained,"[9]; mouse, in vivo",72 h
same,binding to normal human bronchial epithelial cells,[18],limited binding
same,accumulation in cancer cells,cancer cells,selectively accumulate
